Measurements taken from EP0362645B1, “Use of pteridines in the prevention of the primary and secondary resistance during chemotherapy, and medicaments containing these compounds” (Dr. Karl Thomae GmbH, priority 1988, dated 1990).

System: adriamycinresistente S 180 Maus Sarcomazellen
Assay: MTT proliferation/cytotoxicity assay on adriamycin-resistant S 180 sarcoma cells, with or without adriamycin (sensitisation)
Format: cell-based
Conditions: S-180, 144 h, six days culture, MTT readout
From the text: Beispielsweise wurde die Sensibilisierung durch die Verbindungen A = 4-[N-(2-Hydroxy-2-methyl-propyl)-ethanolamino]-2,7-bis-(2,6-dimethyl-morpholino)-6-phenyl-pteridin, B = 4-Ethyl-ethanolamino-2,7-bis(2,6-dimethyl-morpholino)-6-phenyl-pteridin, C = 4-Ethanol-isopropanolamino-2,7-bis(2,6-dimethyl-morpholino)-6-phenyl-pteridin, D = 4-Diethanolamino-2,7-bis(2,6-dimethyl-morpholino)-6-phenyl-pteridin und E = 4-[N-(2-Hydroxy-2-methyl-propyl)-ethanolamino]-2,7-bis(cis-2,6-dimethyl-morpholino)-6-phenyl-pteridin am Beispiel von gegen Adriamycin resistenten Zellen wie folgt geprüft: Proliferierende, adriamycinresistente S 180 Maus Sarcomazellen werden in Anwesenheit unterschiedlicher Konzentrationen Testsubstanzen für sechs Tage kultiviert. Zytotoxisch oder zytostatisch wirkende Konzentrationen der Testsubstanzen werden durch vermindertes Zellwachstum oder durch das Absterben der Zellen angezeigt. Endpunkt des Assays ist die Zahl der lebenden Zellen pro Kultur, die indirekt ermittelt wird, indem die Eigenschaft vitaler Zellen, den Farbstoff MTT [= 3-(4,5-Dimethylthiazol-2-yl)-2,5-diphenyltetrazoliumbromid] zum farbigen Formazan zu reduzieren, ausgenützt wird. Als IC50 wird die Konzentration einer Testsubstanz bezeichnet, welche die Zahl der vitalen Zellen pro Kulturgefäß auf 50 % der unbehandelten Kontrolle reduziert. Die Testsubstanzen werden sowohl in Abwesenheit von Adriamycin als auch in Anwesenheit einer unter Kulturbedingungen nicht proliferationshemmend wirkenden Menge Adriamycin getestet. Pro Testsubstanz erhält man daher zwei IC50-Werte, einen in Anwesenheit (IC50 ADR), den anderen in Abwesenheit (IC50) von Adriamycin. Die Differenz der Zehnerlogarithmen der beiden IC50-Werte: Δ = 1gIC50-1gIC50 ADR ist ein Maß für die Erhöhung der Zytotoxizität der Testsubstanz durch Adriamycin.
Exponentiell wachsende, adriamycinresistente oder adriamycinsensitive S 180-Zellen werden in 96-Loch Flachboden-Mikrotiterplatten zu 2000 Zellen pro Loch in 100 »l Wachstumsmedium (RPMI-1640, das 10 % fötales Rinderserum enthält) ausplattiert. Die Kulturplatten werden im Brutschrank bei 37°C, 5 % CO₂ und 100 % relativer Luftfeuchtigkeit inkubiert. Nach 24 Stunden werden pro Loch 50 »l Wachstumsmedium, das unterschiedliche Konzentrationen an Testsubstanz enthält, und 50 »l Wachstumsmedium mit oder ohne Adriamycin hinzugefügt. Im Anschluß an eine weitere sechstägige Kultivierung werden 50 »l Tetrazoliumsalzlösung [5 mg 3-(4,5-Dimethylthiazol-2-yl)-2,5-diphenyltetrazoliumbromid pro ml Phosphat-gepufferter Salinelösung, vor Gebrauch 1:5 (v/v) mit RPMI-1640 verdünnt] in jedes Loch pipettiert. Nach vier Stunden Inkubation wird das Kulturmedium vorsichtig abgesaugt und intrazellulär gebildetes Formazan durch 150 »l Dimethylsulfoxid pro Loch solubilisiert. Die Platten werden kurz geschüttelt und die optische Dichte bei 570 nm mit einem Photometer wie einem Dynatech MR-600-Gerät gemessen. Die Bildung des farbigen Formazans durch Reduktion des Tetrazoliumsalzes ist proportional der Zahl der lebenden Zellen. Die Mittelwerte von Dreifach-Bestimmungen wurden bei der Berechnung der IC50-Werte verwendet (Verdünnungsstufe: 1:2).

[1] = Tabelle 2, Adriamycin 100 ng/ml

`CC1CN(c2nc(N(CCO)CC(C)(C)O)c3nc(-c4ccccc4)c(N4CC(C)OC(C)C4)nc3n2)CC(C)O1` (centres unmarked) [A, 4-[N-(2-Hydroxy-2-methyl-propyl)-ethanolamino]-2,7-bis-(2,6-dimethyl-morpholino)-6-phenyl-pteridin] was tested. Which IC50 (Tabelle 1, Adriamycin 0 ng/ml) did it give?
The IC50 was 20.7 µg/mL.

What about the IC50 (Tabelle 1, Adriamycin 25 ng/ml) of the same molecule?
Its IC50 is 1.49 µg/mL.

And the IC50 (Tabelle 2, Adriamycin 0 ng/ml)?
The IC50 was 20.7 µg/mL.

And the IC50 [1]?
Its IC50 is less than 0.5 µg/mL.

`CCN(CCO)c1nc(N2CC(C)OC(C)C2)nc2nc(N3CC(C)OC(C)C3)c(-c3ccccc3)nc12` (centres unmarked) [B, 4-Ethyl-ethanolamino-2,7-bis(2,6-dimethyl-morpholino)-6-phenyl-pteridin] was tested. Which IC50 (Tabelle 1, Adriamycin 0 ng/ml) did it give?
The IC50 was greater than 31.6 µg/mL.

And the IC50 (Tabelle 1, Adriamycin 25 ng/ml)?
Its IC50 is 4.43 µg/mL.

And the IC50 (Tabelle 2, Adriamycin 0 ng/ml)?
The IC50 was greater than 31.6 µg/mL.

What about the IC50 [1] of the same molecule?
The IC50 was 0.77 µg/mL.

What does the source list for `CC(O)CN(CCO)c1nc(N2CC(C)OC(C)C2)nc2nc(N3CC(C)OC(C)C3)c(-c3ccccc3)nc12` (centres unmarked) [C, 4-Ethanol-isopropanolamino-2,7-bis(2,6-dimethyl-morpholino)-6-phenyl-pteridin]?
IC50 (Tabelle 1, Adriamycin 0 ng/ml): 12.8 µg/mL; IC50 (Tabelle 1, Adriamycin 25 ng/ml): 3.77 µg/mL; IC50 (Tabelle 2, Adriamycin 0 ng/ml): 12.8 µg/mL; IC50 [1]: 0.82 µg/mL

With `CC1CN(c2nc(N(CCO)CCO)c3nc(-c4ccccc4)c(N4CC(C)OC(C)C4)nc3n2)CC(C)O1` (centres unmarked) [D, 4-Diethanolamino-2,7-bis(2,6-dimethyl-morpholino)-6-phenyl-pteridin] as the molecule, how does the IC50 (Tabelle 1, Adriamycin 0 ng/ml) read?
Its IC50 is 14.4 µg/mL.

What about the IC50 (Tabelle 1, Adriamycin 25 ng/ml) of the same molecule?
Its IC50 is 5.78 µg/mL.

And the IC50 (Tabelle 2, Adriamycin 0 ng/ml)?
The IC50 was 14.4 µg/mL.

What about the IC50 [1] of the same molecule?
Its IC50 is 1.57 µg/mL.

`C[C@@H]1CN(c2nc(N(CCO)CC(C)(C)O)c3nc(-c4ccccc4)c(N4C[C@@H](C)O[C@@H](C)C4)nc3n2)C[C@H](C)O1` [E, 4-[N-(2-Hydroxy-2-methyl-propyl)-ethanolamino]-2,7-bis(cis-2,6-dimethyl-morpholino)-6-phenyl-pteridin] was tested. Which IC50 (Tabelle 1, Adriamycin 0 ng/ml) did it give?
The IC50 was 7.5 µg/mL.

What about the IC50 (Tabelle 1, Adriamycin 25 ng/ml) of the same molecule?
Its IC50 is 0.5 µg/mL.

What about the IC50 (Tabelle 2, Adriamycin 0 ng/ml) of the same molecule?
Its IC50 is 7.5 µg/mL.

And the IC50 [1]?
The IC50 was 0.1 µg/mL.
